Results from patent publication US5556858A, “Cis-2-[(4-heteroaryl-1-piperazinyl)alkyl] hexahydro-1H-isoindole-1,3 (2H)-diones and related compounds and their therapeutic utility” (Hoechst-Roussel Pharmaceuticals, Inc., priority 1995, dated 1996).
Where two headings read alike, the source gives them in different places.

Columns and labels:
[1] = system: apomorphine climbing; assay: climbing mice assay (antipsychotic activity); assay type: in vivo, mice (CK-1 male); conditions: Mus musculus; ip; apomorphine 1.5 mg/kg subcutaneously; climbing score vs control
Description: Subject […] male mice (23-27 grams) are group-housed under standard laboratory conditions. The mice are individually placed in wire mesh stick cages (4"×10") and are allowed one hour for adaption and exploration of the new environment.
For evaluation of climbing, 3 readings are taken at 10, 20, and 30 minutes-after apomorphine administration according to the following scale: […]
Mice consistently climbing before the injection of apomorphine are discarded.
With full-developed apomorphine climbing, the animals are hanging on to the cage walls, rather motionless, over long periods of time. By contrast, climbs due to mere motor stimulation usually only last a few seconds.
The climbing scores are individually totaled (maximal score: 6 per mouse over 3 readings) and the total score of the control group (vehicle intraperitoneally-apomorphine subcutaneously) is set to 100%.

[2] = system: phenylquinone induced writhing; assay: phenyl p-quinone writhing assay (analgesia); assay type: in vivo, mice; conditions: Mus musculus, sc, dose effecting approximately 50% inhibition of writhing
From the text: Some of the compounds of the present invention are also useful as analgetics due to their ability to alleviate pain in mammals. […] Exptl. Biol. Med., 95:729 (1957). Thus, for instance, the subcutaneous dose effecting an approximately 50% inhibition of writhing (ED50) in mice produced in this assay is as shown in Table 2.

[3] = read-out: INHIBITION OF PHE[…] WRITHING ED50

SMILES | ED50 [1] [mg/kg] | ED50 [2] [mg/kg] | ED50 [2, 3] [mg/kg]
COc1cc(C(C)=O)ccc1OCCCN1CCC(c2noc3ccccc23)CC1 [1-[4-[3-[4-(1,2-benzisoxazol-3-yl)-1-piperidinyl]propoxy]-3-methoxyphenyl]ethanone] | 0.67 | 0.17 | –
COc1cc(C(C)=O)ccc1OCCCN1CCN(c2n[nH]c3ccccc23)CC1 [1-[4-[3-[4-(1H-indazol-3-yl)-1-piperazinyl]propoxy]-3-methoxyphenyl]ethanone] | 0.98 | 0.06 | –
COc1cc(C(C)=O)ccc1OCCCN1CCC(c2noc3cc(F)ccc23)CC1 [1-[4-[3-[4-(6-fluoro-1,2-benzisoxazol-3-yl)-1-piperidinyl]propoxy]-3-methoxyphenyl]ethanone] | 0.095 | 0.03 | –
CC(C)=CCN1CCC2(C)c3cc(O)ccc3CC1C2C (centres unmarked) [Pentazocine, reference compound] | – | – | 1.3
CCC(=O)O[C@](Cc1ccccc1)(c1ccccc1)[C@H](C)CN(C)C [Propoxyphene, reference compound] | – | – | 3.9
